Measurements as given in US20200020099A1, “INFORMATION PROCESSING DEVICE, INFORMATION PROCESSING SYSTEM, AND INFORMATION PROCESSING METHOD” (SONY CORPORATION, priority 2017, published 2020).

Key:
HL60 cell [1] = assay: Quantification of morphological change (area change amount, peripheral length change amount) from phase difference moving images; format: cell-based
Source text: An image (moving image) of an HL60 cell that had been differentiated and stimulated by adding 1% DMSO and performing culture for one week was imaged over time with a phase difference microscope under conditions that magnification of an objective lens was 60 times, an imaging interval was 27 frames/second, and imaging time was 60 seconds. FIG. 5 is an image illustrating cell boundary recognition and tracking according to Example 1. […] Thereafter, the cell boundary was tracked by matching the drawn solid line to a next image. Then, a cell area in the continuous image was tracked by repeating matching to the continuous image.
Thereafter, the area and the peripheral length were calculated from the tracked cell area, and an average of the areas, an average of the peripheral lengths, and change amounts thereof in the continuous image were calculated. Then, the change amount with respect to the average of the areas or peripheral lengths was calculated as the morphological change amount (area change amount and peripheral length change amount). This was used as Control. By a similar method, as for a case where 100 μM of a mitochondrial […] agent, carbonyl cyanide m-chlorophenylhydrazone (also simply referred to as “CCCP” here), which is a drug that inhibits intracellular metabolism, was added, the morphological change amount was calculated similarly. The upper drawing of FIG. 6 is a drawing-substituting graph illustrating an area change amount and a peripheral length change amount according to Example 1, and the lower drawing of FIG. 6 is an image illustrating cell boundary recognition and tracking in Control and in a case where CCCP is added according to Example 1.

HL60 cell [2] = assay: Motion amount of the intracellular structure (motion vector analysis) from moving images; format: cell-based; settings: concentrations of 0.01 μM, 0.1 μM, 1 μM, and 10 μM, FIG. 7
Source text: More specifically, the analysis unit 121 extracts a motion vector between at least two imaged images having different imaging times. For example, the analysis unit 121 can extract a motion vector from a range designated by a user using a […], a gradient method, or the like. Note that the analysis unit 121 may extract a motion vector from the entire imaged image.
The length of a motion vector is a motion amount. The analysis unit 121 can calculate a motion amount (motion speed) of an intracellular structure per unit time from an interval (time) of the two imaged images from which the motion vector has been extracted. Note that in the present technology, the motion amount of the intracellular structure can be determined using an average value, a median value, a maximum value, a standard deviation, and the like of the lengths of the motion vectors.
By a similar method to Example 1 described above, the morphological change amounts (area change amounts and peripheral length change amounts) in a case where CCCP was added at concentrations of 0.01 μM, 0.1 μM, 1 μM, and 10 μM were calculated, respectively. Furthermore, a motion vector under similar conditions was calculated at an interval of about 1 μm, and a spatiotemporal average of the motion amounts (motion speeds) per unit time for each cell was calculated to create a color map. […]

[3] = 100 μM added, differentiated HL60 cell (1% DMSO, one week), vs Control, FIG. 6
[4] = concentrations of 0.01 μM, 0.1 μM, 1 μM, and 10 μM, HL60 cell, FIG. 7
[5] = 200 nM added, HL60 cell, vs Control, FIG. 10

Compound	area change amount (HL60 cell [1]; [3])	peripheral length change amount (HL60 cell [1]; [3])	area change amount (HL60 cell [1]; [4])	peripheral length change amount (HL60 cell [1]; [4])	motion amount (vector analysis) of the intracellular structure (HL60 cell [2])	area change amount (HL60 cell [1]; [5])	peripheral length change amount (HL60 cell [1]; [5])
N#CC(C#N)=NNc1cccc(Cl)c1 [CCCP, carbonyl cyanide m-chlorophenylhydrazone]	significant decrease	significant decrease	concentration-dependent decrease	concentration-dependent decrease	concentration-dependent decrease		
C=C1[C@@H](C)[C@H]2[C@H](Cc3ccccc3)NC(=O)[C@]23[C@H](OC(C)=O)/C=C/[C@@](C)(O)C(=O)[C@@H](C)C/C=C/[C@H]3[C@@H]1O [Cytochalasin D]						significant decrease	significant decrease
